Experiment [1] addresses PI3K. Description: PI3K lipid kinase activity, Adapta TR-FRET assay with purified enzyme. It counts as biochemical. The following applies: for IC50: read-out: PI3K inhibition IC50. The procedure:
(§1) Quantitation of PI3K lipid kinase activity of a present compound is determined with purified enzyme using the fluorescence-based Adapta™ TR-FRET assay from InVitrogen (Wisconsin, USA). Quantitation of MEK1 kinase activity of a present compound is determined with purified enzyme using the LanthaScreen® displacement binding assay (Tracer 236) from InVitrogen (Wisconsin, USA). Cellular screening is carried in cultured Panc-1 cells treated for 1 hour with varied doses of the test compound. Effects on pERK and pAKT expression are evaluated by immunoblotting using phospho-specific antibodies (pAKT [Ser473] and pERK1/2 [Thr202/Tyr204]) from Cell Signaling Technology.
(§2) In Vitro Biochemical and Cell-Based Assays. Detection of PI3K lipid kinase activity was conducted with purified enzyme using the fluorescence-based Adapta™ TR-FRET assay from Invitrogen (Wisconsin, USA). Detection of the MEK1 kinase activity was conducted with purified enzyme using the LanthaScreen® displacement binding assay (Tracer 236) from Invitrogen (Wisconsin, USA). Evaluation of off-target kinase activity was conducted against the kinase screening panel provided by Invitrogen (Wisconsin, USA).
On the technique in general: Time-resolved FRET reads energy transfer from a long-lived donor to a nearby acceptor.

In experiment [2] the target is ERK. Description: Off-target kinase selectivity panel (Invitrogen). In kind it is biochemical. To be noted: read-out: IC50 against ERK. The procedure:
as §2

The target of experiment [3] is T1, PKCα (Homo sapiens, UniProt P17252).
T1 construct: purchased Invitrogen
Description: Off-target kinase selectivity panel (Invitrogen). It counts as biochemical. The following applies: read-out: IC50 against PKCα. The procedure: as §2

The target of experiment [4] is T2, AurB (Homo sapiens, UniProt Q96GD4).
T2 construct: purchased Invitrogen
T2 sequence (Q96GD4 whole entry): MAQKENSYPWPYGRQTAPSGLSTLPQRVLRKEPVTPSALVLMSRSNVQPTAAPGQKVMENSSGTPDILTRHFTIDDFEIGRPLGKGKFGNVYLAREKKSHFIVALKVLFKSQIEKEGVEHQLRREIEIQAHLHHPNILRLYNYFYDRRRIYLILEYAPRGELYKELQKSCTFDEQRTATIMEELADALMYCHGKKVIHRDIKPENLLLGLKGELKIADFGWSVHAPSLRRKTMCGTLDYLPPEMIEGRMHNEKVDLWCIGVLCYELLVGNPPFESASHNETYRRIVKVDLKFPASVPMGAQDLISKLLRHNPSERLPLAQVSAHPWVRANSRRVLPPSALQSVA
The experiment is described as follows: Off-target kinase selectivity panel (Invitrogen). It counts as biochemical. To be noted: read-out: IC50 against AurB. The procedure:
as §2

Experiment [5] addresses T3, EGFR (Homo sapiens, UniProt P00533).
T3 construct: purchased Invitrogen
Description: Off-target kinase selectivity panel (Invitrogen). The following applies: read-out: IC50 against EGFR. In kind it is biochemical. The method, then:
as §2

Experiment [6] deals with PI3K isoforms. Description: PI3K isoform potency. In kind it is biochemical. The method, then:
as §2

Experiment [7] has as its system pAKT [Ser473]. The experiment is described as follows: Cellular pAKT expression by immunoblotting in Panc-1 cells. In kind it is cell-based. To be noted: Panc-1 cells treated for 1 hour, immunoblot. The procedure:
as §1
(§3) Cells were cultured in Dulbecco's Modified Eagle's Medium (DMEM) and 10% FBS, and grown in a 37° C. incubator with 5% CO2. Cells were plated at 3×10^5 cells/well in 6 well plates, and the following day were treated for 1 hr at 37° C. Cells were lysed in 50 mM Tris, 1% NP-40, 150 mM NaCl, 10% glycerol, 1 mM EDTA with 1× protease inhibitor (complete; Roche Applied Science) and phosphatase inhibitors (PhosSTOP, Roche Applied Science). Protein concentration was determined with a Dc Protein Assay Kit (BioRad). Proteins were resolved by SDS-PAGE and transferred to nitrocellulose membranes. […]
In general terms: In western blotting, separated proteins are transferred to a membrane and probed.

Experiment [8] relates to pERK1/2 [Thr202/Tyr204]. The experiment is described as follows: Cellular pERK expression by immunoblotting in Panc-1 cells. It counts as cell-based. To be noted: Panc-1 cells treated for 1 hour, immunoblot. The procedure: as §1, §3
The target of experiment [9] is MEK1 (Homo sapiens, UniProt Q02750). Description: MEK1 LanthaScreen displacement binding assay (Tracer 236) with purified enzyme. The following applies: in vitro, read-out: MEK inhibition IC50.
Chain of MEK1 (Q02750 whole entry): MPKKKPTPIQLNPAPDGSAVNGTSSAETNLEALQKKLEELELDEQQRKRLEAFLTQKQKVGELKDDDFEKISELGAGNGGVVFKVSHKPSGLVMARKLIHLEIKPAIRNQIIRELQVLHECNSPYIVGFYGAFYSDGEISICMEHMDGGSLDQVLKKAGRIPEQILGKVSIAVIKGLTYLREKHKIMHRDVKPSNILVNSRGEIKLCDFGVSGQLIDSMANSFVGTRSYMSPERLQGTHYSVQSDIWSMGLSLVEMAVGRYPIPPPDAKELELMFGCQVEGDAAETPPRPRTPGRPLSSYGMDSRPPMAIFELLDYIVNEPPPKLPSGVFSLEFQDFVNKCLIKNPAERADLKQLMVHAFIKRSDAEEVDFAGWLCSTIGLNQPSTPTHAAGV

Molecules are shown by their SMILES.

T3 sequence (P00533 25-1210): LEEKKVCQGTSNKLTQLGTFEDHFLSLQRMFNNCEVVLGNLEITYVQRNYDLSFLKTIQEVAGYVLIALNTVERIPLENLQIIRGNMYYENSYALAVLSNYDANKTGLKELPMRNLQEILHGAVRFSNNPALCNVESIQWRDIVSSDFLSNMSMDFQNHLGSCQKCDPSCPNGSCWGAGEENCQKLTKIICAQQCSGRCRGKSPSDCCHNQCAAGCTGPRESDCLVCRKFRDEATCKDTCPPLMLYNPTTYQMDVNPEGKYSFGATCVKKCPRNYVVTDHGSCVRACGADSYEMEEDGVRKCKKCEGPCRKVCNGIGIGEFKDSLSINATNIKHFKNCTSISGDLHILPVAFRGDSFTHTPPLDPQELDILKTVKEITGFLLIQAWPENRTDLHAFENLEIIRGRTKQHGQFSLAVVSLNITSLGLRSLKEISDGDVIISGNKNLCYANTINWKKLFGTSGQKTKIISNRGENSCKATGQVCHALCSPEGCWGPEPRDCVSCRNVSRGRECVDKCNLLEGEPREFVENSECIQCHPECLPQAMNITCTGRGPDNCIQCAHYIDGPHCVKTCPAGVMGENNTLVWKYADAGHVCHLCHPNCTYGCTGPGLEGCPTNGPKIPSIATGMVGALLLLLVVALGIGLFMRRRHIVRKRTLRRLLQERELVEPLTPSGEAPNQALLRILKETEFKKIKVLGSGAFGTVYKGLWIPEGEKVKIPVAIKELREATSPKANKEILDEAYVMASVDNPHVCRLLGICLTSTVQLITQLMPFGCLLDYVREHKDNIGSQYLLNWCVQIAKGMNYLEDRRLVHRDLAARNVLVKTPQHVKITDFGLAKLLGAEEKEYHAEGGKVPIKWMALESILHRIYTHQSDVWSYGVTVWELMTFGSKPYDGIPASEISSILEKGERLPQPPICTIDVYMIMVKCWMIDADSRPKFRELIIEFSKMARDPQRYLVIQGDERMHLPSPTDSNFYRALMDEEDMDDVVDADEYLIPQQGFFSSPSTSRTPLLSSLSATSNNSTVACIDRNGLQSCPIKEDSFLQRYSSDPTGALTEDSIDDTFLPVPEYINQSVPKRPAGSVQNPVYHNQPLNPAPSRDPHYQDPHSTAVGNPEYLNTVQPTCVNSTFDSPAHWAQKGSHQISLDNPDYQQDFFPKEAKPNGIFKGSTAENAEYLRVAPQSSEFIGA

Consider `NCCCCCC(=O)N1CCN(c2nc(N3CCOCC3)nc(-n3c(C(F)F)nc4ccccc43)n2)CC1` [MV3-46A], for which the IC50 in experiment [1] (in vitro, purified enzyme) is less than 100 nM. In [1] (nitro group (MV3-44B) converted to amino group), the “improvement in PI3K binding affinity” value is 10 fold.

Consider `Cc1c(Cc2cccc(N(C)S(=O)(=O)CCCNCCCCCC(=O)N3CCN(c4nc(N5CCOCC5)nc(-n5c(C(F)F)nc6ccccc65)n4)CC3)c2)c(=O)oc2cc(OC(=O)N(C)C)ccc12` [MV3-65A], for which the IC50 in experiment [2] is greater than 10000 nM; in [3] it was greater than 10000 nM; in experiment [4] it was greater than 10000 nM; in [5], greater than 10000 nM; in experiment [1] (in vitro, purified enzyme), 370 nM; in experiment [9], 501 nM. For the same molecule, in experiment [6], the “potency against all of the PI3K isoforms” value was “comparably potent against all of the PI3K isoforms”. In addition, in [7], the “cellular inhibition of pAKT expression” value is “cellular inhibition of both pERK and pAKT expression was observed”. Besides, the “cellular inhibition of pERK expression” value in experiment [8] is “cellular inhibition of both pERK and pAKT expression was observed”.

Consider `FC(F)c1nc2ccccc2n1-c1nc(N2CCNCC2)nc(N2CCOCC2)n1` [MV3-42B], for which the concentration for half-maximal inhibition (IC50) in [1] (in vitro, purified enzyme) was 100 nM.

Turning to `O=C(CCCCC[N+](=O)[O-])N1CCN(c2nc(N3CCOCC3)nc(-n3c(C(F)F)nc4ccccc43)n2)CC1` [MV3-44B], the “PI3K inhibition IC50” value in [1] (in vitro, purified enzyme, bound printed without a number) is recorded as “>μM”.

As a reminder, the IC50 is the concentration that inhibits the measured activity by half.
